Data published in EP2964612B1, “P[…] AND THEIR USE AS FLUORESCENT LABELS” (Illumina Cambridge Limited, priority 2013, dated 2014).

Target: T1, Pol 957 EA (Thermococcus sp., UniProt Q56366)
T1 sequence (Q56366 1-775): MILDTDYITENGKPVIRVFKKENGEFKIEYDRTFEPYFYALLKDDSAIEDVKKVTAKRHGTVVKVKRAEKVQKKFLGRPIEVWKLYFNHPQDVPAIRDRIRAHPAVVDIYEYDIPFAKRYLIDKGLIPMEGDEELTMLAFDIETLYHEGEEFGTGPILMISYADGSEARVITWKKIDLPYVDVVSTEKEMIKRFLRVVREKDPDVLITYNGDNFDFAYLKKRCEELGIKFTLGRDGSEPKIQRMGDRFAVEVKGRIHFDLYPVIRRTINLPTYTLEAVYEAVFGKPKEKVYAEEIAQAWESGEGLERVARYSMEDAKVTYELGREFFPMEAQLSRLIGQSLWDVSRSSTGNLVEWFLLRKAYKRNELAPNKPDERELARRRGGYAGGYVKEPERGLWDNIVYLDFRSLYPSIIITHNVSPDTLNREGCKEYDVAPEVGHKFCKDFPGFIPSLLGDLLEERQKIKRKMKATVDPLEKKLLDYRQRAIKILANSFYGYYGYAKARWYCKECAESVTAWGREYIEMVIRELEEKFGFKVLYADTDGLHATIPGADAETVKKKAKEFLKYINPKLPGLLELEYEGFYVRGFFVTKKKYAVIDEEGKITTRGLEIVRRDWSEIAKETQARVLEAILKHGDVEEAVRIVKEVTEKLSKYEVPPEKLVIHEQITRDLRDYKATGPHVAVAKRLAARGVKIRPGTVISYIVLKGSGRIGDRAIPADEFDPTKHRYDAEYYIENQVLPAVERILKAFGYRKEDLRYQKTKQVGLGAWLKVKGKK
Test: Binding affinity of labelled 3'-azidomethylthymidine triphosphates to the polymerase (Table 2)

Cc1cn([C@H]2C[C@H](OCN=[N+]=[N-])[C@@H](COP(=O)(O)OP(=O)(O)OP(=O)(O)O)O2)c(=O)[nH]c1=O [Dark ffT]
Kd: 0.55 µM
